Read-outs that look alike come from different tables or passages of the source.
Test system: human umbilical vein endothelial cells (HUVEC)
Assay: HUVEC proliferation assay
Assay type: cell-based
Conditions: for inhibition at 0.001 µM / inhibition at 0.01 µM / inhibition at 0.15 µM / inhibition at 0.05 µM: Homo sapiens, HUVEC; for inhibition at 0.001 µM: 1 nM; for inhibition at 0.01 µM: 10 nM; for inhibition at 0.05 µM: 50 nM
Outline: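 Readout was MTT dye reduction (A595) after 72 h of stimulation with VEGF at 6 ng/ml final. Compound, in 0.1% DMSO final, was added 1 h before VEGF to HUVEC starved 24 h in 1% FBS. % inhibition was scaled between VEGF-alone and unstimulated wells; IC50 was fitted from triplicate dose curves.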

[1] = table following Table II (untitled), crude combinatorial library
[2] = table following Table II (untitled), crude combinatorial library, read-out: % inhibition @ 10 nM
[3] = Table I screening results, 150 nM, crude combinatorial amide library
[4] = Inhibition of HUVEC Proliferation, crude combinatorial urea library, read-out: % inhibition @ 50 nM
[5] = Table II screening results, crude combinatorial amide library
[6] = Table II screening results, crude combinatorial amide library, read-out: % inhibition @ 10 nM
[7] = crude combinatorial urea library, read-out: Inhibition of HUVEC Proliferation % inhibition @ 10 nM
[8] = crude combinatorial urea library, read-out: Inhibition of HUVEC Proliferation % inhibition @ 50 nM
[9] = Inhibition of HUVEC Proliferation, crude combinatorial urea library, read-out: Inhibition @ 50 nM

COc1cc(Nc2nc(N)c(-c3nc(-c4cc(NC(=O)C5CC(=O)OC5(C)C)ccc4C)no3)s2)cc(OC)c1OC (stereo not shown)
inhibition at 0.001 µM [1]: -9% | inhibition at 0.01 µM [2]: 12%

COc1cc(Nc2nc(N)c(-c3nc(-c4cccc(NC(=O)c5cccc(Oc6ccccc6)c5)c4)cs3)s2)cc(OC)c1OC
inhibition at 0.15 µM [3]: -3%

COc1cccc(C(=O)Nc2cc(-c3csc(-c4sc(NC(=O)NCCCN5CCCC5=O)nc4N)n3)c(F)cc2F)c1 [drawing 675]
inhibition at 0.05 µM [4]: 105%

COc1cccc(C(=O)Nc2cc(-c3csc(-c4sc(NC(=O)NCC(C)(C)CO)nc4N)n3)c(F)cc2F)c1
inhibition at 0.05 µM [4]: 120%

COc1cc(Nc2nc(N)c(-c3nc(-c4cccc(NC(=O)C(C)c5ccccc5)c4)cs3)s2)cc(OC)c1OC (stereo not shown)
inhibition at 0.15 µM [3]: 3%

CNC(=O)Nc1nc(N)c(-c2nc(-c3cccc(NC(=O)C4CC5CC(O)C4C5)c3)cs2)s1 (stereo not shown)
inhibition at 0.001 µM [5]: 20% | inhibition at 0.01 µM [6]: 19%

CNC(=O)Nc1nc(N)c(-c2nc(-c3cccc(NC(=O)c4cccc5cc[nH]c45)c3)cs2)s1
inhibition at 0.001 µM [5]: -11% | inhibition at 0.01 µM [6]: 60%

COc1cccc(C(=O)Nc2cccc(-c3csc(-c4sc(NC(=O)NCCCN5CCOCC5)nc4N)n3)c2)c1
inhibition at 0.01 µM [7]: 19% | inhibition at 0.05 µM [8]: 83%

CNC(=O)Nc1nc(N)c(-c2nc(-c3cccc(NC(=O)C4CC(=O)N(C)C4)c3)cs2)s1 (stereo not shown)
inhibition at 0.001 µM [5]: 21% | inhibition at 0.01 µM [6]: -4%

COc1cc(Nc2nc(N)c(-c3nc(-c4cc(NC(=O)C5CCC(=O)CC5)ccc4C)no3)s2)cc(OC)c1OC
inhibition at 0.001 µM [1]: 23% | inhibition at 0.01 µM [2]: -24%

COC(=O)c1cccc(C(=O)Nc2cccc(-c3csc(-c4sc(Nc5cc(OC)c(OC)c(OC)c5)nc4N)n3)c2)c1
inhibition at 0.15 µM [3]: 42%

COc1cc(Nc2nc(N)c(-c3nc(-c4cc(NC(=O)C5(c6ccc(C)cc6)CC5)ccc4C)no3)s2)cc(OC)c1OC
inhibition at 0.001 µM [1]: 10% | inhibition at 0.01 µM [2]: -8%

COc1cc(Nc2nc(N)c(-c3nc(-c4cccc(NC(=O)C5(c6ccccc6)CCCC5)c4)cs3)s2)cc(OC)c1OC
inhibition at 0.15 µM [3]: -10%

COc1cc(Nc2nc(N)c(-c3nc(-c4cccc(NC(=O)C5C6CC7C(C6=O)C75)c4)cs3)s2)cc(OC)c1OC (stereo not shown)
inhibition at 0.15 µM [3]: -6%

COc1cc(Nc2nc(N)c(-c3nc(-c4cc(NC(=O)Cc5cc(F)ccc5F)ccc4C)no3)s2)cc(OC)c1OC
inhibition at 0.001 µM [1]: -7% | inhibition at 0.01 µM [2]: 59%

COc1cccc(C(=O)Nc2cc(-c3csc(-c4sc(NC(=O)NCCCN5CCCC5)nc4N)n3)c(F)cc2F)c1
inhibition at 0.05 µM [4]: 92%

COc1cc(Nc2nc(N)c(-c3nc(-c4cc(NC(=O)c5cc(C)n[nH]5)ccc4C)no3)s2)cc(OC)c1OC
inhibition at 0.001 µM [1]: -1% | inhibition at 0.01 µM [2]: 99%

COc1cccc(C(=O)Nc2cccc(-c3csc(-c4sc(NC(=O)NC5CC(C)(C)NC(C)(C)C5)nc4N)n3)c2)c1
inhibition at 0.01 µM [7]: -13% | inhibition at 0.05 µM [8]: 29%

CNC(=O)Nc1nc(N)c(-c2nc(-c3cccc(NC(=O)/C=C/C(=O)NCC4CC4)c3)cs2)s1
inhibition at 0.001 µM [5]: 10% | inhibition at 0.01 µM [6]: 1%

CNC(=O)Nc1nc(N)c(-c2nc(-c3cccc(NC(=O)C4CCSCN4C)c3)cs2)s1 (stereo not shown)
inhibition at 0.001 µM [5]: 1% | inhibition at 0.01 µM [6]: 62%

COc1cccc(C(=O)Nc2cccc(-c3csc(-c4sc(NC(=O)NCCC(N)=O)nc4N)n3)c2)c1
inhibition at 0.01 µM [7]: 30% | inhibition at 0.05 µM [8]: 1%

COc1cc(Nc2nc(N)c(-c3nc(-c4cccc(NC(=O)CCN5CCCCC5)c4)cs3)s2)cc(OC)c1OC
inhibition at 0.15 µM [3]: 15%

COc1cc(Nc2nc(N)c(-c3nc(-c4cccc(NC(=O)C5CC(=O)N5)c4)cs3)s2)cc(OC)c1OC (stereo not shown)
inhibition at 0.15 µM [3]: -2%

COc1cccc(C(=O)Nc2cc(-c3csc(-c4sc(NC(=O)NCCCN(CCO)CCO)nc4N)n3)c(F)cc2F)c1
inhibition at 0.05 µM [4]: 51%

COc1cccc(C(=O)Nc2cccc(-c3csc(-c4sc(NC(=O)NCCN5CCCCC5)nc4N)n3)c2)c1
inhibition at 0.01 µM [7]: 22% | inhibition at 0.05 µM [8]: 25%

COc1cccc(C(=O)Nc2cccc(-c3csc(-c4sc(NC(=O)NCCN5CCCC5)nc4N)n3)c2)c1
inhibition at 0.01 µM [7]: 7% | inhibition at 0.05 µM [8]: 17%

COc1cc(Nc2nc(N)c(-c3nc(-c4cccc(NC(=O)C5=C(C)c6ccccc6C5)c4)cs3)s2)cc(OC)c1OC
inhibition at 0.15 µM [3]: 29%

COc1cc(Nc2nc(N)c(-c3nc(-c4cccc(NC(=O)Cc5cc(C)ccc5C)c4)cs3)s2)cc(OC)c1OC
inhibition at 0.15 µM [3]: 12%

COc1cc(Nc2nc(N)c(-c3nc(-c4cccc(NC(=O)CCC(C)C)c4)cs3)s2)cc(OC)c1OC
inhibition at 0.15 µM [3]: 39%

COc1cc(Nc2nc(N)c(-c3nc(-c4cccc(NC(=O)Cc5ccccc5Cl)c4)cs3)s2)cc(OC)c1OC
inhibition at 0.15 µM [3]: 34%

COc1cccc(C(=O)Nc2cc(-c3csc(-c4sc(NC(=O)NCCCCCCN(C)C)nc4N)n3)c(F)cc2F)c1
inhibition at 0.05 µM [4]: 83%

COc1cccc(/C=C/C(=O)Nc2ccc(C)c(-c3noc(-c4sc(Nc5cc(OC)c(OC)c(OC)c5)nc4N)n3)c2)c1
inhibition at 0.001 µM [1]: -5% | inhibition at 0.01 µM [2]: 40%

COc1cc(Nc2nc(N)c(-c3nc(-c4cccc(NC(=O)CCc5ccccc5Cl)c4)cs3)s2)cc(OC)c1OC
% inhibition @ 150 nM [3]: 0%

COc1cccc(C(=O)Nc2cc(-c3csc(-c4sc(NC(=O)NCC(N)=O)nc4N)n3)c(F)cc2F)c1
inhibition at 0.05 µM [4]: 48%

COc1cc(Nc2nc(N)c(-c3nc(-c4cc(NC(=O)CCC(=O)N5CCCC5)ccc4C)no3)s2)cc(OC)c1OC
inhibition at 0.001 µM [1]: -18% | inhibition at 0.01 µM [2]: -20%

CNC(=O)Nc1nc(N)c(-c2nc(-c3cc(NC(=O)c4cccc(OC)c4)c(F)cc3F)no2)s1 [drawing 782]
inhibition at 0.05 µM [9]: 105%

COc1cccc(C(=O)Nc2cccc(-c3csc(-c4sc(NC(=O)NCCCC(=O)O)nc4N)n3)c2)c1
inhibition at 0.01 µM [7]: 23% | inhibition at 0.05 µM [8]: 24%

C/C=C/CC(=O)Nc1cccc(-c2csc(-c3sc(Nc4cc(OC)c(OC)c(OC)c4)nc3N)n2)c1
inhibition at 0.15 µM [3]: 38%

CNC(=O)Nc1nc(N)c(-c2nc(-c3cccc(NC(=O)C4CCCO4)c3)cs2)s1 (stereo not shown)
inhibition at 0.001 µM [5]: 183% | inhibition at 0.01 µM [6]: -33%

COCCNC(=O)Nc1nc(N)c(-c2nc(-c3cc(NC(=O)c4cccc(OC)c4)c(F)cc3F)cs2)s1
inhibition at 0.05 µM [4]: 21%

COc1cccc(C(=O)Nc2cc(-c3noc(-c4sc(NC(=O)NCC5CCCO5)nc4N)n3)c(F)cc2F)c1 (stereo not shown) [drawing 762]
inhibition at 0.05 µM [9]: 107%

COc1cc(Nc2nc(N)c(-c3nc(-c4cccc(NC(=O)C(c5ccccc5)C5CCCC5)c4)cs3)s2)cc(OC)c1OC (stereo not shown)
inhibition at 0.15 µM [3]: 3%

COc1cc(Nc2nc(N)c(-c3nc(-c4cc(NC(=O)C5=CCCN(C)C5)ccc4C)no3)s2)cc(OC)c1OC
inhibition at 0.001 µM [1]: 5% | inhibition at 0.01 µM [2]: 1%

COc1cccc(C(=O)Nc2cc(-c3csc(-c4sc(NC(=O)NCC(F)(F)F)nc4N)n3)c(F)cc2F)c1
inhibition at 0.05 µM [4]: 2%

COc1cccc(C(=O)Nc2cccc(-c3csc(-c4sc(NC(=O)NCC5CCC=CO5)nc4N)n3)c2)c1 (stereo not shown)
inhibition at 0.01 µM [7]: -5% | inhibition at 0.05 µM [8]: 33%

CCCCN(CC)CCNC(=O)Nc1nc(N)c(-c2nc(-c3cccc(NC(=O)c4cccc(OC)c4)c3)cs2)s1
inhibition at 0.01 µM [7]: 1% | inhibition at 0.05 µM [8]: 10%

COc1cc(Nc2nc(N)c(-c3nc(-c4cc(NC(=O)[C@H]5CCC(=O)N5)ccc4C)no3)s2)cc(OC)c1OC
inhibition at 0.001 µM [1]: -4% | inhibition at 0.01 µM [2]: 13%

COc1cccc(C(=O)Nc2cc(-c3noc(-c4sc(NC(=O)NCCN5CCNC5=O)nc4N)n3)c(F)cc2F)c1
inhibition at 0.05 µM [9]: -2%

COCC(C)NC(=O)Nc1nc(N)c(-c2nc(-c3cc(NC(=O)c4cccc(OC)c4)c(F)cc3F)cs2)s1 (stereo not shown) [drawing 704]
inhibition at 0.05 µM [4]: 93%

COc1cccc(C(=O)Nc2cccc(-c3csc(-c4sc(NC(=O)NC(C)CO)nc4N)n3)c2)c1 (stereo not shown)
inhibition at 0.01 µM [7]: -3% | inhibition at 0.05 µM [8]: 42%

COc1cc(Nc2nc(N)c(-c3nc(-c4cccc(NC(=O)c5scc(S(=O)(=O)c6ccc(Cl)cc6)c5C)c4)cs3)s2)cc(OC)c1OC
inhibition at 0.15 µM [3]: 10%

CNC(=O)Nc1nc(N)c(-c2nc(-c3cccc(NC(=O)Cn4ccc5ccccc54)c3)cs2)s1
inhibition at 0.001 µM [5]: 4% | inhibition at 0.01 µM [6]: -15%

COc1cc(OC)cc(C(=O)Nc2cccc(-c3csc(-c4sc(Nc5cc(OC)c(OC)c(OC)c5)nc4N)n3)c2)c1
inhibition at 0.15 µM [3]: 51%

COc1cccc(C(=O)Nc2cc(-c3noc(-c4sc(NC(=O)NCC(C)C)nc4N)n3)c(F)cc2F)c1 [drawing 804]
inhibition at 0.05 µM [9]: 20%
